Read-outs that look alike come from different tables or passages of the source.
Tests used:
[1] = system: BMP-induced phosphorylation of SMAD1/5/8; assay: BMP4-induced phosphorylation of SMAD1/5/8, cytoblot (cellular ELISA); format: cell-based, murine; details: Mus musculus; FIG. 1; approximate; read-out: functional IC50, BMP4-induced SMAD1/5/8 phosphorylation
Protocol: Murine pulmonary artery smooth muscle cells were isolated, explanted and cultured as previously described (see […] et al. Am. J. Physiol. Lung Cell Mol. Physiol. 280:[…], 2001) and then grown to confluence in 96 well tissue culture plates. Cells were incubated in serum-free medium for 18 h, and then incubated with recombinant BMP2, BMP4, BMP6, BMP9, GDF5, TGF-β, or Activin A ligands (R&D Systems, Minneapolis, Minn.) at varying concentrations in duplicate for 20 minutes. […] Specificity for BMP-mediated signaling was determined separately using a modification of the cellular ELISA technique assaying for the activation of SMAD2 or SMAD3 via TGF-β, or Activin A. A corresponding IC50 was calculated for the effects of these compounds upon those signaling pathways.

PDGFR-mediated signaling = assay: PDGF-induced AKT phosphorylation, cellular ELISA in PaSMCs; format: cell-based, murine
Protocol: To test the relative effects of dorsomorphin and structurally-related compounds upon PDGFR-mediated signaling, PDGF-induced AKT phosphorylation was measured by cellular ELISA via the detection of phospho-AKT in PaSMCs treated with compounds for 10 min. followed by PDGF for 30 min.

KDR-mediated signaling = assay: Antagonism of KDR-mediated signaling (not shown); details: compound 13 versus dorsomorphin
[2] = Plasma pharmacokinetics after single bolus intraperitoneal administration; format: in vivo, C57B16 mice; details: IP 3 mg/kg
Protocol: The pharmacokinetics of 13.HCl was evaluated after a single bolus intraperitoneal administration (3 mg/kg) in male and female C57B16 mice on a commercial rodent diet and water ad libitum prior to the study. Compound plasma levels were determined by LC-MS/MS and the pharmacokinetic parameters were determined using WinNonlin software (Pharsight Co., Mountain View, Calif.). Dosing solutions (0.6 mg/mL) were prepared in a vehicle comprising 2% hydropropyl-β-cyclodextrin in phosphate-buffered saline (PBS). Each time point (pre-dose, 5, 10, 15, 30, 60, 120, 240, 480, 1440 min post-dose) was dosed as N=3/sex. Each blood sample was collected via cardiac puncture after euthanasia with CO2 and placed in chilled tubes containing sodium heparin. Samples were centrifuged at 4° C. at 13,000 rpm for 5 min followed by extracted with acetonitrile and then analyzed.
The pharmacokinetics of 44.HCl and 37.HCl were evaluated after a single bolus intraperitoneal administration (3 mg/kg) in male C57B16 mice on a commercial rodent diet and water ad libitum prior to the study. Compound plasma levels were determined by LC-MS/MS and the pharmacokinetic parameters were determined using WinNonlin software (Pharsight Co., Mountain View, Calif.). Dosing solutions (0.6 mg/mL) were prepared in a vehicle comprising 2% hydropropyl-β-cyclodextrin in phosphate-buffered saline (PBS). Each time point (pre-dose, 5, 10, 15, 30, 60, 120, 240, 480, 1440 min post-dose) was dosed as
N=3/sex. Each blood sample was collected via cardiac puncture after euthanasia with CO2 and placed in chilled tubes containing sodium heparin. Samples were centrifuged at 4° C. at 13,000 rpm for 5 min followed by extracted with acetonitrile and then analyzed.

[3] = system: IL6-induced hepcidin expression in HepG2 cells; assay: IL6-induced hepcidin expression in HepG2 hepatoma cells; format: cell-based, human; details: pretreatment 5-625 nM for 30 min, IL6 50 ng/mL 1.5 h; FIG. 7
Protocol: HepG2 cells pretreated with compound 13 (5-625 nM) or vehicle for 30 min. were incubated with IL6 (50 ng/mL) for 1.5 h. Cells were harvested, and hepcidin mRNA and 18S rRNA levels were measured by quantitative RT-PCR. Changes in gene expression were normalized to 18S ribosomal RNA levels using the relative cycle threshold method.

hepcidin [4] = assay: Turpentine-induced hepatic hepcidin expression time course; format: in vivo, C57BL/6 mice; details: 3 mg/kg IP every 12 h; compared to vehicle; FIG. 13
C57BL/6 wild-type mice = assay: 30-day treatment of wild-type mice, circulating blood cell lineages; format: in vivo, C57BL/6 mice
[5] = system: turpentine-treated C57BL/6 mice; assay: Established turpentine-induced anemia of inflammation (rescue); format: in vivo
Protocol: After the establishment of anemia, treatment with either vehicle or compound 13 (3 mg/kg/d IP) is begun concurrently with an additional 3 weeks of weekly turpentine injections, to assess the potential for rescuing established turpentine-induced anemia of inflammation. […] Shaded areas indicate normative values in C57BL/6 mice for each parameter.

hepcidin [6] = assay: Hepcidin expression in IL-6-expressing transgenic zebrafish; format: in vivo; details: 6 uM by bathing overnight; 7 days postfertilization; FIG. 22
Protocol: IL-6 expression was driven in the cardiomyocytes of living zebrafish by mating transgenic zebrafish expressing the Gal4 protein under the control of the cardiac myosin light chain 2 (cmlc) promoter with transgenic zebrafish carrying the human IL-6 gene under the control of a UAS upstream activation sequence (IL-6). Animals carrying both transgenes expressed IL-6 in their cardiomyocytes. IL-6-expressing animals were treated with 6 uM compound 13 or DMSO control by bathing overnight (FIG. 22). At 7 days postfertilization, animals were lysed, total RNA was extracted, and hepcidin expression levels were determined by quantitative RT-PCR with normalization to the housekeeping gene RPL13.

[7] = system: constitutively-active mutant form of ALK2
[8] = C57BL/6, mouse, in vivo, ip, 3 mg/kg, 8 h
Protocol: Preliminary pharmacokinetic studies were performed by intraperitoneally administering to wild-type mice (C57BL/6) one dose (3 mg/kg) of compound 13 (FIG. 23). Pharmacokinetics via plasma levels of compound 13 were serially measured in individual mice at varying intervals after injection by LC-MS/MS (n=3 mice each point, mean±s.d.).

[9] = 3 mg/kg/d IP for 30 days, average (n = 4)

Question: With c1ccc2c(-c3cnn4cc(-c5ccc(N6CCNCC6)cc5)cnc34)ccnc2c1 [Compound 13, 4-[6-(4-piperazin-1-ylphenyl)pyrazolo[1,5-a]pyrimidin-3-yl]quinoline] as the compound, how does the IC50 [1] read?
Answer: 5 to 10 nM

Question: What about the “selectivity for BMP signaling versus PDGF signaling” value (PDGFR-mediated signaling) of the same compound?
Answer: improves upon the selectivity

Question: And the IC50 (PDGFR-mediated signaling; Mus musculus, PASMC, compounds 10 min, then PDGF 30 min, FIG. 2, read-out: functional IC50, PDGF-induced AKT phosphorylation)?
Answer: ~2000 nM

Question: What about the “antagonism of KDR-mediated signaling” value (KDR-mediated signaling) of the same compound?
Answer: five- to six-fold reduction

Question: What about the Tmax ([2]; C57B16, mouse, female mice, read-out: tmax) of the same compound?
Answer: < 5 min

Question: What about the Tmax ([2]; C57B16, mouse, male mice, read-out: tmax) of the same compound?
Answer: < 5 min

Question: What about the “AUC∞” value ([2]; female mice) of the same compound?
Answer: 1030 ng·h/mL

Question: What about the Cmax ([2]; female mice) of the same compound?
Answer: 1290 nM

Question: What about the Tmax ([2]; female mice) of the same compound?
Answer: < 5 min

Question: And the t1/2 ([2]; female mice)?
Answer: 96 min

Question: And the “AUC∞” value ([2]; male mice)?
Answer: 994 ng·h/mL

Question: And the Cmax ([2]; male mice)?
Answer: 1540 nM

Question: And the Tmax ([2]; male mice)?
Answer: < 5 min

Question: What about the t1/2 ([2]; male mice) of the same compound?
Answer: 96 min

Question: And the “IL6-mediated increase in hepcidin mRNA levels” value [3]?
Answer: abrogated the IL6-mediated increase in hepcidin mRNA levels in a dose-dependent fashion

Question: What about the “hepatic hepcidin elevation after turpentine” value (hepcidin [4]) of the same compound?
Answer: effectively suppressed hepcidin elevation at 24-96 hours

Question: What about the “myelosuppression, thrombocytopenia, anemia or erythrocytosis” value (C57BL/6 wild-type mice; 3 mg/kg/d IP for 30 days) of the same compound?
Answer: did not appear to cause myelosuppression, thrombocytopenia, anemia or conversely erythrocytosis

Question: And the “% Lymphocyte” value (C57BL/6 wild-type mice; [9])?
Answer: 63.1%

Question: What about the “% Monocyte” value (C57BL/6 wild-type mice; [9]) of the same compound?
Answer: 3.8%

Question: What about the “% Neutrophil” value (C57BL/6 wild-type mice; [9]) of the same compound?
Answer: 30.8%

Question: And the “% Reticulocyte” value (C57BL/6 wild-type mice; [9])?
Answer: 2.6%

Question: And the Hb (C57BL/6 wild-type mice; [9])?
Answer: 11.9 g/dL

Question: And the Hct (C57BL/6 wild-type mice; [9])?
Answer: 43.8%

Question: And the MCHC (C57BL/6 wild-type mice; [9])?
Answer: 27.3 g/dL

Question: What about the MCV (C57BL/6 wild-type mice; [9]) of the same compound?
Answer: 48.5 fL

Question: What about the Platelet count (C57BL/6 wild-type mice; [9]) of the same compound?
Answer: 8.305e+11 L⁻¹

Question: What about the RBC (C57BL/6 wild-type mice; [9]) of the same compound?
Answer: 9e+12 L⁻¹

Question: And the RDW (C57BL/6 wild-type mice; [9])?
Answer: 18.6%

Question: And the “Total WBC” value (C57BL/6 wild-type mice; [9])?
Answer: 1.9e+09 L⁻¹

Question: And the “serum iron in the steady state” value (C57BL/6 wild-type mice; 30 days treatment, compared to vehicle-treated controls, data not shown)?
Answer: did not cause an elevation of serum iron

Question: And the blood hemoglobin ([5]; 3 mg/kg/d IP for final 3 weeks of 6 weeks turpentine, FIG. 17)?
Answer: significant improvement

Question: What about the hematocrit ([5]; 3 mg/kg/d IP for final 3 weeks of 6 weeks turpentine, FIG. 18) of the same compound?
Answer: restoration of hematocrit to values within the normal range

Question: And the “mean corpuscular volume (MCV)” value ([5]; 3 mg/kg/d IP for final 3 weeks of 6 weeks turpentine, FIG. 19)?
Answer: restores MCV to low-normal levels

Question: And the neutrophilia ([5]; FIG. 21)?
Answer: induced neutrophilia regardless of treatment with vehicle or compound 13

Question: And the reticulocyte counts ([5]; cotreatment for final 3 weeks of 6 weeks turpentine, FIG. 20)?
Answer: restores high-normal reticulocyte counts

Question: What about the “hepcidin expression in IL-6-expressing animals” value (hepcidin [6]) of the same compound?
Answer: reduced hepcidin expression to wild-type levels

Question: And the “ectopic calcification and disability” value ([7]; FOP mutant mice, 3 mg/kg ip twice daily, FIG. 14)?
Answer: prevented the ectopic calcification and disability

Question: What about the skeletal development ([7]; wild type mice, 3 mg/kg BID) of the same compound?
Answer: exhibited normal skeletal development

Question: And the “plasma levels relative to in vitro IC50 for BMP4-mediated activation of Smad1/5/8” value [8]?
Answer: 5 fold
